# Source: patent US11352361B2, “Compounds useful as RET inhibitors” (Cancer Research Technology Limited, priority 2017, dated 2022)
# Molecular target: RET (Homo sapiens (Human), UniProt P07949)
# Test: RET enzyme assay (CisBio HTRF kinEASE)
# Format: biochemical
# Conditions: RET/KDR enzyme and cell assays
# Sequence of RET (P07949 658-1114): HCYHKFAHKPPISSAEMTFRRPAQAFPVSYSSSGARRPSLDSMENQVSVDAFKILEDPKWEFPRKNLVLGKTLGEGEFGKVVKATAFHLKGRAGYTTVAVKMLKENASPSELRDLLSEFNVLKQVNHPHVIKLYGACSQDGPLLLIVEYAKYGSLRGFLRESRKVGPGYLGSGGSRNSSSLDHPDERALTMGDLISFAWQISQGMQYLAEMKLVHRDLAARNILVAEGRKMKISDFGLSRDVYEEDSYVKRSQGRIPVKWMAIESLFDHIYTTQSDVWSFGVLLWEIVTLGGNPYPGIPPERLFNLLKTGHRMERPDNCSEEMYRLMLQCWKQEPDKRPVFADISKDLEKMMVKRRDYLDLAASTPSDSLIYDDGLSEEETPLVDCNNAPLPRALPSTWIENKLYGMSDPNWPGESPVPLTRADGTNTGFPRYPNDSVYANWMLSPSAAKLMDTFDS
row,Compound,desired activity in the assays described in Example 51
1,"CC(C)(C)n1nc(-c2ccc3cc(C(=O)O)[nH]c3c2)c2c(N)ncnc21 [6-(4-amino-1-tert-butyl-pyrazolo[3,4-d]pyrimidin-3-yl)-1H-indole-2-carboxylic acid]",did not exhibit the desired activity
2,"CC(C)(C)n1nc(-c2ccc3cc(C(=O)Nc4nnc(C(F)(F)F)s4)[nH]c3c2)c2c(N)ncnc21 [6-(4-amino-1-tert-butyl-pyrazolo[3,4-d]pyrimidin-3-yl)-N-[5-(trifluoromethyl)-1,3,4-thiadiazol-2-yl]-1H-indole-2-carboxamide]",did not exhibit the desired activity
3,"CNC(=O)c1cc2ccc(-c3n[nH]c4ncnc(N)c34)cc2[nH]1 [6-(4-amino-1H-pyrazolo[3,4-d]pyrimidin-3-yl)-N-methyl-1H-indole-2-carboxamide]",did not exhibit the desired activity
4,"CNC(=O)c1cc2ccc(-c3nn(CCO)c4ncnc(N)c34)cc2[nH]1 [6-[4-amino-1-(2-hydroxyethyl)pyrazolo[3,4-d]pyrimidin-3-yl]-N-methyl-1H-indole-2-carboxamide]",did not exhibit the desired activity
5,"CNC(=O)c1cc2ccc(-c3nn(CC(=O)N(C)C)c4ncnc(N)c34)cc2[nH]1 [6-[4-amino-1-[2-(dimethylamino)-2-oxo-ethyl]pyrazolo[3,4-d]pyrimidin-3-yl]-N-methyl-1H-indole-2-carboxamide]",did not exhibit the desired activity
6,"CNC(=O)c1cc2ccc(-c3nn(CCC(=O)N(C)C)c4ncnc(N)c34)cc2[nH]1 [6-[4-amino-1-[3-(dimethylamino)-3-oxo-propyl]pyrazolo[3,4-d]pyrimidin-3-yl]-N-methyl-1H-indole-2-carboxamide]",did not exhibit the desired activity
7,"CCNC(=O)c1cc2ccc(-c3nn([C@H]4CC[C@@H](O)C4)c4ncnc(NC)c34)cc2[nH]1 [N-ethyl-6-[1-[(1 S,3R)-3-hydroxycyclopentyl]-4-(methylamino)pyrazolo[3,4-d]pyrimidin-3-yl]-1H-indole-2-carboxamide]",did not exhibit the desired activity

# Molecular target: KDR (Homo sapiens (Human), UniProt P35968)
# Test: KDR enzyme assay (CisBio HTRF kinEASE)
# Format: biochemical
# Conditions: ATP at Km, 15 mins pre-incubation
# Sequence of KDR (P35968 790-1356): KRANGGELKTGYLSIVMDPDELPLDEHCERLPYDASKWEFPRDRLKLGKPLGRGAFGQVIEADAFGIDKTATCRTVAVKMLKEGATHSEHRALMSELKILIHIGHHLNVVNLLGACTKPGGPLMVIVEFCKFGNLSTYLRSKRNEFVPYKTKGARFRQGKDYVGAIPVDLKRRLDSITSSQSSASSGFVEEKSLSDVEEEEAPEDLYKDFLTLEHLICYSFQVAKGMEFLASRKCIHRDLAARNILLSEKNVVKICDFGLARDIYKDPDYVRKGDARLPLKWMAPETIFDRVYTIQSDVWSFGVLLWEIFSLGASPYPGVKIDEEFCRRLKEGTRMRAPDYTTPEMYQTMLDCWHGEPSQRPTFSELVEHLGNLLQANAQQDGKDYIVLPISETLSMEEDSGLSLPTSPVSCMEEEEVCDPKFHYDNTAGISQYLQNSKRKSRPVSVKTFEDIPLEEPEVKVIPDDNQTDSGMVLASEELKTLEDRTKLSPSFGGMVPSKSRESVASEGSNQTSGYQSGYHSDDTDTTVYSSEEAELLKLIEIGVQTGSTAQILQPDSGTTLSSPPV
row,Compound,IC50
1,"CC(C)(C)n1nc(-c2ccc3cc(C(=O)NCC(F)(F)F)[nH]c3c2)c2c(N)ncnc21 [Example 11, 6-(4-Amino-1-tert-butyl-pyrazolo[3,4-d]pyrimidin-3-yl)-N-(2,2,2-trifluoroethyl)-1H-indole-2-carboxamide]",150000 nM

# Molecular target: BaF3 cells expressing KIF5B-RET (Homo sapiens, UniProt P07949)
# Test: BaF3 cell assay, KIF5B-RET (CellTiter-Glo viability)
# Format: cell-based
# Conditions: 48 hours incubation
# Sequence of BaF3 cells expressing KIF5B-RET (P07949 29-1114 limits assumed, change not shown): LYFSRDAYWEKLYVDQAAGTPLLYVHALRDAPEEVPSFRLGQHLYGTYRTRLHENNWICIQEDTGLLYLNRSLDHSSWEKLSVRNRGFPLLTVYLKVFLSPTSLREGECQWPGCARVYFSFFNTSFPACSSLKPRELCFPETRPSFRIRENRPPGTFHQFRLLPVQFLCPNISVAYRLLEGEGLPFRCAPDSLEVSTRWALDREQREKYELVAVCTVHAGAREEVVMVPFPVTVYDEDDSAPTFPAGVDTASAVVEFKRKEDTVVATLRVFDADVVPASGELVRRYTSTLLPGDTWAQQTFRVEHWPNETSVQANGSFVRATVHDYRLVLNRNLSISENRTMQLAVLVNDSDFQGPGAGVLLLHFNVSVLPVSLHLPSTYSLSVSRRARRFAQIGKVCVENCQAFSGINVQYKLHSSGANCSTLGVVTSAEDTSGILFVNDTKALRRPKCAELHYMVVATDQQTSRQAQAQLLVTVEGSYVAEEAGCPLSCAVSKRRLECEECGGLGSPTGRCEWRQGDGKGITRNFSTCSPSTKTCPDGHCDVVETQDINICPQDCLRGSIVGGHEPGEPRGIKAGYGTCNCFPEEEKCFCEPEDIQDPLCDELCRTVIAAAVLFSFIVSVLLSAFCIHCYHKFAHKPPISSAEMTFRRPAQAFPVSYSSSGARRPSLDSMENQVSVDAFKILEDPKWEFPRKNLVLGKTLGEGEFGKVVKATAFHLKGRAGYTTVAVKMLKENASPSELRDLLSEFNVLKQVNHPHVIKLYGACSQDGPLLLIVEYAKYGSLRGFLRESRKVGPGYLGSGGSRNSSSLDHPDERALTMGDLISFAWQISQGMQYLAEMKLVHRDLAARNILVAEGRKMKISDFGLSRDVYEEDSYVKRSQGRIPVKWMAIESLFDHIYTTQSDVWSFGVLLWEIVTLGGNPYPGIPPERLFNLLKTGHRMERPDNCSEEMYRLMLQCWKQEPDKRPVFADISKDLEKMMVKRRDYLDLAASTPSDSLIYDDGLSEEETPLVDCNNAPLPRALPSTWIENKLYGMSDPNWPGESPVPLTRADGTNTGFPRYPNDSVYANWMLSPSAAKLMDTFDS
row,Compound,IC50
1,"CC(C)(C)n1nc(-c2ccc3cc(C(=O)Nc4nccs4)[nH]c3c2)c2c(N)ncnc21 [Example 1, 6-(4-Amino-1-tert-butyl-pyrazolo[3,4-d]pyrimidin-3-yl)-N-thiazol-2-yl-1H-indole-2-carboxamide]",83.6 nM
2,"Cc1csc(NC(=O)c2cc3ccc(-c4nn(C(C)(C)C)c5ncnc(N)c45)cc3[nH]2)n1 [Example 26, 6-(4-Amino-1-tert-butyl-pyrazolo[3,4-d]pyrimidin-3-yl)-N-(4-methylthiazol-2-yl)-1H-indole-2-carboxamide]",912 nM
3,"CNC(=O)c1cc2ccc(-c3nn(C4CC4)c4ncnc(N)c34)cc2[nH]1 [Example 50, 6-(4-Amino-1-cyclopropyl-pyrazolo[3,4-d]pyrimidin-3-yl)-N-methyl-1H-indole-2-carboxamide]",222 nM

# Molecular target: BaF3 cells expressing KDR (Homo sapiens, UniProt P35968, cells depend on it, form not given)
# Test: not given
# Conditions: read-out: KDR Cell IC50; 48 hours incubation
# Sequence of BaF3 cells expressing KDR (P35968 20-1356 limits assumed, change not shown): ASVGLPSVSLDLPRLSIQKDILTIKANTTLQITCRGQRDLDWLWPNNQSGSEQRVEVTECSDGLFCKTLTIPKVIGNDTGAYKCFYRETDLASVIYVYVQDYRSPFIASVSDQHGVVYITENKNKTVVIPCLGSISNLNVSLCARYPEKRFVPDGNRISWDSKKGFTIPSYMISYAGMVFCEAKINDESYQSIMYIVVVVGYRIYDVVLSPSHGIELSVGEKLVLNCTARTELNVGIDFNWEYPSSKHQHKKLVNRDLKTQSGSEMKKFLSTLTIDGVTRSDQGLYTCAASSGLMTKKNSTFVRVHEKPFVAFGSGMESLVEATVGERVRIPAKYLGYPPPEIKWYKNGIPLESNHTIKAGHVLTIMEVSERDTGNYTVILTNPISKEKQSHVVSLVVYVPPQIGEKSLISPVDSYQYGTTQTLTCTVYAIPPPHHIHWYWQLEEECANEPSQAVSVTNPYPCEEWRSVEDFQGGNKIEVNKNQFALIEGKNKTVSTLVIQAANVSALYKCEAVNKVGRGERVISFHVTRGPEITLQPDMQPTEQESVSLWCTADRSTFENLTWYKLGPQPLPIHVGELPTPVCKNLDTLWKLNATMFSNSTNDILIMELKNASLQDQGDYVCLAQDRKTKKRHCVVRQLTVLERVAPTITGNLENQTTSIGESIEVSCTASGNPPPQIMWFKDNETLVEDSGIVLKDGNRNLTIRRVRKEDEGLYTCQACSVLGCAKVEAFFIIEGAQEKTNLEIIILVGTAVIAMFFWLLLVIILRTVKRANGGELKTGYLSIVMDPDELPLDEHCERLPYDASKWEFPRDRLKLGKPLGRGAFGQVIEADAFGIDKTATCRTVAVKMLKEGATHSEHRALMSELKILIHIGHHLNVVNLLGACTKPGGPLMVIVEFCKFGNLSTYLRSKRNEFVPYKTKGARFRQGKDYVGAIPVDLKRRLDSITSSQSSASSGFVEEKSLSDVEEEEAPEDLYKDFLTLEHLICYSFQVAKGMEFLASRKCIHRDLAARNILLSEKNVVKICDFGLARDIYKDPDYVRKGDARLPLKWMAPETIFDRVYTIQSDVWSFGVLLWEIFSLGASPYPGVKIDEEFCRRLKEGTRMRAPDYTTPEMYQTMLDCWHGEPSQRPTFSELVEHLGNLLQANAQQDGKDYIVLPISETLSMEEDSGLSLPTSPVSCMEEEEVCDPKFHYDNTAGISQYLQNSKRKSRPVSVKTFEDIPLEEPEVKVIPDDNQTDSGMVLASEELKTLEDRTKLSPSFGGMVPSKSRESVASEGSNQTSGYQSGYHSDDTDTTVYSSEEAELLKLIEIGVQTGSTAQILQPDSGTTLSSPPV
row,Compound,IC50
1,"CC(C)(C)n1nc(-c2ccc3cc(C(=O)NCC(F)(F)F)[nH]c3c2)c2c(N)ncnc21 [Example 11, 6-(4-Amino-1-tert-butyl-pyrazolo[3,4-d]pyrimidin-3-yl)-N-(2,2,2-trifluoroethyl)-1H-indole-2-carboxamide]",4260 nM
2,"CC(C)n1nc(-c2ccc3cc(C(=O)Nc4nccs4)[nH]c3c2)c2c(N)ncnc21 [Example 37, 6-(4-Amino-1-isopropyl-pyrazolo[3,4-d]pyrimidin-3-yl)-N-thiazol-2-yl-1H-indole-2-carboxamide]",702 nM
